# “Also recorded” adds a separate entry of the source. Where two headings read alike, the source gives them in different places. Marks after values point to notes of the source that are not given here.
# What was measured:
# [1] = tested on: tyrosine phosphatase activity in PMNs; assay: in vitro phosphatase activity (pNPP) on membranes from human primary PMNs; assay type: biochemical; details: PMN membranes, DMSO 0.75
# Experimental: We first tested the biochemical activity of the fusion peptide by performing in vitro assays of phosphatase activity on purified membranes isolated from human primary monocytes compared to membranes isolated from human primary polymorphonuclear cells (PMNs). Human primary monocytes and polymorphonuclear (PMNs) cells were isolated from whole blood of healthy donors. Purity of monocyte preparation was evaluated by flow cytometry after staining with fluorescein isothiocyanate (FITC)-conjugated anti-CD14 antibody and was more than 95%. Isolated cells were kept at 37° C. in standard adhesion buffer (PBS, 1 mM CaCl2, 1 mM MgCl2, 10% FBS, pH 7.2) and used within 1 h.
# The phosphatase activity in membrane fractions isolated from human monocytes and PMNs was assessed. […] Cells were then sonicated twice (6 sec, 15% W) and centrifuged at 2000 rpm for 10 minutes. The supernatants were collected and centrifuged at 28000 rpm for 60 minutes. After centrifugation, the supernatants were discarded, and the membrane pellets were dissolved in 20 mM tris pH 7.4. Equal amount of membrane fractions were added to pNPP buffer containing 20 mM tris, 10 mM DTT and 2 mM pNPP. Following, DMSO and peptides were added. After 30 minutes of incubation, levels of de-phosphorylation, in presence or absence of orthovanadate, were measured at 405 nm by a plate reader. Values are absorbance at 405 nn shown as percent fold increase over the blank; mean values of three experiments are shown. *p<0.001 vs vehicle (DMSO).
# [2] = tested on: human neutrophils; assay: fMLP-triggered adhesion of neutrophils (PMNs) to ICAM-1; assay type: cell-based; details: for adhesion of human neutrophils to ICAM-1 (adherent cells), Resting (no stimulation): mean ± SD
# Experimental: We investigated the functional effect of PTPRG activation on integrin activation and mediated adhesion by chemoattractants in human primary monocytes and PMNs in a static and flow adhesion assays. Briefly, human primary monocytes or polymorphonuclear cells were suspended at 5×10^6/ml in standard adhesion buffer. Adhesion assays were performed on 18-well glass slides coated with 1 mg/ml human fibrinogen or with 1 μg/ml human ICAM-1 in PBS; 20 μl of cell suspension were added to the coated wells and stimulated for 1 min at 37° C. with 5 μl of fMLP, 0.05 μM final concentration. After rapid washing, adherent cells were fixed in ice-cold 1.5% glutaraldehyde in PBS, and still images of adherent cells in 0.2 mm^2 fields were acquired al 20× phase contrast magnification, NA 0.40, with a charge-coupled device camera (ICD-42B; Ikegami) connected to an inverted microscope (IX50; Olympus). Image acquisition and computer-assisted enumeration of adherent cells were performed with ImageJ (National Institute of Health).
# Chemokine-triggered adhesion of human neutrophils was measured similarly. Freshly isolated, non-activated human neutrophils incubated with buffer or increasing concentrations of TAT-ICD and then spotted onto ICAM-1-coated slides. Integrin-mediated adhesion was triggered using 50 nM fMLP and the adherent cells were fixed and enumerated as described for the lymphocytes above.
# [3] = tested on: Hbb^th3/+ mice (β-thalassemia model)
# [4] = tested on: U87 GBM cells; assay: MTT survival assay, U87 GBM cells; assay type: cell-based
# Experimental: (§1) The DBTRG-O5MG (Denver Brain Tumor Research Group 05) cell line was established from tissue from a patient with glioblastoma multiforme who had been treated with local brain irradiation and multi drug chemotherapy (Kruse C A, et al. 1992 In vitro Cell Dev Biol, 28A(9-10):609-14). U87 is a commonly studied and thoroughly characterized grade IV glioma cell line derived from malignant glioma (Clark M J, et al, 2010 Plos Genet. 6(1):e1000832.). T98G is a glioblastoma multiforme cell line extracted from a person (Stein G H, 1979, J. Cell Physiol, 99(1):43-54). Proliferation and survival were assessed following TAT-ICD or control peptide (Table 29) or the P1-WD or control peptide treatment using the MTT assay as described above. Data are relative absorption; mean and standard deviation.
# [5] = tested on: Hbb^th3/+ mice (β-thalassemia model); assay: apoptosis of bone marrow orthochromatic erythroblasts (Annexin-V PE); assay type: in vivo, mouse; details: ICD-Treated, 3 weeks
# Experimental: One of the hallmarks of β-thalassemia is increased apoptosis of late-stage erythroblasts. Apoptosis of population IV (orthochromatic erythroblasts) was assessed using standard protocols using the Annexin-V PE apoptosis kit following manufacturer instructions. Data are the mean percent of apoptotic cells (Table 42).
# [6] = tested on: DBTRG GBM cells; assay: MTT survival assay, DBTRG GBM cells; assay type: cell-based, human
# Experimental: as §1
# [7] = tested on: DBTRG GBM cells; assay: VYBRANT early apoptosis, DBTRG GBM cells; assay type: cell-based, human; details: 0.5 μM
# [8] = in vitro phosphatase assay of TAT-ICD (pNPP); assay type: biochemical; details: 50 μM TAT control peptide or 50 μM TAT-ICD; 30 minutes
# Experimental: Cells were then sonicated twice (6 sec, 15% \N) and centrifuged at 2000 rpm for 10 minutes. The supernatants were collected and centrifuged at 28000 rpm for 60 minutes and then the membrane pellets were dissolved in 20 mM tris pH 7.4. Equal amount of membrane fractions were added to pNPP buffer containing 20 mM tris, 10 mM DTT and 2 mM pNPP. Following, DMSO and 50 μM TAT control peptide or 50 μM TAT-ICD, in presence or absence of 200 μM Na3VO4 were added. After 30 minutes of incubation, levels of de-phosphorylation, in presence or absence of orthovanadate, were measured at 405 nm by a plate reader (Table 5). Shown is % fold increase over the pNPP buffer alone; mean values of 7 experiments in triplicate.
Substance,"MTT relative absorption ([4]; 0.1 μM, 24 hours, CTRL 1200)","MTT relative absorption ([4]; 0.1 μM, 48 hours, CTRL 1200)","MTT relative absorption ([4]; 0.1 μM, 72 hours, CTRL 1336)","MTT relative absorption ([4]; 0.25 μM, 24 hours, CTRL 1200)","MTT relative absorption ([4]; 0.25 μM, 48 hours, CTRL 1200)","MTT relative absorption ([4]; 0.25 μM, 72 hours, CTRL 1336)","MTT relative absorption ([4]; 0.5 μM, 24 hours, CTRL 1200)","MTT relative absorption ([4]; 0.5 μM, 48 hours, CTRL 1200)","MTT relative absorption ([4]; 0.5 μM, 72 hours, CTRL 1336)","MTT relative absorption ([6]; 0.3 μM, 24 hours, Control 941)","MTT relative absorption ([6]; 0.3 μM, 48 hours, Control 1274)","MTT relative absorption ([6]; 0.3 μM, 72 hours, Control 1667)","MTT relative absorption ([6]; 0.5 μM, 24 hours, Control 941)","MTT relative absorption ([6]; 0.5 μM, 48 hours, Control 1274)","MTT relative absorption ([6]; 0.5 μM, 72 hours, Control 1667)","MTT relative absorption ([6]; 1.0 μM, 24 hours, Control 941)","MTT relative absorption ([6]; 1.0 μM, 48 hours, Control 1274)","MTT relative absorption ([6]; 1.0 μM, 72 hours, Control 1667)","percent of apoptotic cells by flow cytometry ([7]; 1 h, Control 14) [%]","percent of apoptotic cells by flow cytometry ([7]; 3 h, Control 16) [%]",also measured
"P1-WD: fusion Trojan peptide SEQ ID 3: Penetratin, glycine, PTPRG wedge domain aa 831-856; RQIKIWFQNRRMKWKKGKQFVKHIGELYSNNQHGFSEDFEEVQ (listed as Homo sapiens)",,,,,,,,,,,,,,,,,,,,,"phosphatase activity, absorbance at 405 nm as percent fold increase over the blank ([1]; P1-WD 50 micromolar): 5.15%; phosphatase activity, absorbance at 405 nm as percent fold increase over the blank ([1]; P1-WD 100 micromolar): 8.54%; phosphatase activity, absorbance at 405 nm as percent fold increase over the blank ([1]; P1-WD 200 micromolar): 12.89%; chemoattractant-induced adhesion / integrin activation of PMNs ([2]; human PMNs): completely unaffected; also recorded: not able to block"
"P1: Penetratin delivery peptide, 16 aa RQIKIWFQNRRMKWKK (SEQ ID 4), control [reference compound]",,,,,,,,,,,,,,,,,,,,,"phosphatase activity, absorbance at 405 nm as percent fold increase over the blank ([1]; control peptide, concentration not given): 5.08%"
TAT-ICD: fusion recombinant protein SEQ ID 5: PTPRG intracellular domain aa 797-1445 fused to 13 aa TAT sequence,1070,1167,813,1069,1062,650,1000,977,650,772,770,1243,773,623,1022,669,577,712,25,40,"red cell morphology ([3]; Hbb^th3/+ mice): ameliorated red cell morphological abnormalities; red cell morphology ([3]; mouse, in vivo): without any changes; mean percent of apoptotic cells, bone marrow orthochromatic erythroblasts (population IV) ([5]; Hbb^th3/+ mice): 5.75* percent; mean percent of apoptotic cells, bone marrow orthochromatic erythroblasts (population IV) ([5]; Wild-type mice): 4.20%; percent of apoptotic cells by flow cytometry ([7]; 6 h, Control 33): 70%; adhesion of human neutrophils to ICAM-1 (adherent cells), Resting (no stimulation) ([2]; TAT-ICD 0.5 micromolar): 12 ± 5; adhesion of human neutrophils to ICAM-1 (adherent cells), Resting (no stimulation) ([2]; TAT-ICD 1.0 micromolar): 12 ± 5; phosphatase activity, % fold increase over the pNPP buffer alone [8]: 4661.0%"
TAT (GRKKRRQRRRPPQ; listed as Homo sapiens) [reference compound],1200,1018,1343,1195,950,1200,1160,900,1235,711,1031,1583,826,1061,1591,792,1005,1275,10,10,"percent of apoptotic cells by flow cytometry ([7]; 6 h, Control 33): 7%; phosphatase activity, % fold increase over the pNPP buffer alone [8]: 191.7%"

# Source: US10898548B2, “Modulators of protein tyrosine phosphatase and uses thereof” (LEUVAS THERAPEUTICS, priority 2015, dated 2021)
